Values joined by “and” are separate entries in the source; they are usually repeats but may differ in a detail not shown here. Identical values can stand only once.

The nature of assay [1]: Stimulation of glycogen synthesis and anaerobic glucose breakdown in the muscle by other sugars (description). The following applies: even if taken together with vitamin B1 and vitamin C. In kind it is in vivo. From the text: D-Maltose can replace the D-glucose in the preparation according to the invention and is even active in considerably lower amounts. […] The conversion of the sucrose or fructose to glucose, however, only takes place in the liver if they have been absorbed from the small intestine.

For assay [2], the system named is individual B. The assay is described as follows: Ergometer study c): Preparations I-IV with sulphonylureas and/or glucocorticoids, 5 minutes before test (Example 39). The note with it: 125 W for 45 min, ingested 5 min before test, chlorpropamide 20 mg, glibornuride 1 mg, glibenclamide 100 μg, dexamethasone 20 μg, prednisolone 200 μg, Prep. one dose unit. It is filed as in vivo, human. Here is the method:
(§1) Analogously to Example 37, the following studies a) to c) were carried out on two male individuals, trained for endurance cycling and kept on a permanently carbohydrate-rich diet; individual A (weighing 67 kg) having a maximum oxygen uptake capacity of 3.3 l and an oxygen transport volume per heart beat of 29 ml (corresponding to 0.6 kJ), and individual B (weighing 74 kg) having a maximum oxygen uptake capacity of 4.5 l and an oxygen transport volume per heart beat of 36 ml (corresponding to 0.75 kJ) . The following preparations were used, in which the indicated amounts correspond to one dose unit and which were obtained by dissolving or suspending the components in water and gelling the mixture:
(§2) Prep. I: 10 mg of D-glucose, 1 mg of thiamine and 10 mg of ascorbic acid heated with 5 mg of agar-agar in 1 ml of water;
(§3) Prep. II: 25 mg of ethanol, 1 mg of thiamine and 50 μg of biotin heated with 5 mg of agar-agar in 1 ml of water;
Prep. III: 25 mg of ethanol, 250 μg of folic acid and 5 μg of cyanocobalamin heated with 5 mg of gelatin in 1 ml of water;
Prep. IV: 10 mg of H-Gly-Gly-OH, 300 μg of folic acid and 5 μg of cyanocobalamin heated 5 mg of gelatin in 1 ml of water.
(§4) H-Gly-Gly-OH was bought from Novabiochem, Läufelfingen, Switzerland. Insulin was injected subcutaneously, while the other medicaments were ingested alone or together with one of Preparations I-IV.
c) In a further test series, the effect of Preparations I-IV was tested when applied in combination with sulphonylurea derivatives and/or glucocorticoids immediately before the physical exercise. In these tests, individual B was subjected to a workload of 125 W (60 r.p.m.) for 45 minutes; the drugs and Preparations were ingested 5 minutes before the test.

Assay [3] has as its system male individuals A and B, trained for endurance cycling. The assay is described as follows: Ergometer study b): sulphonylureas, glucocorticoids, Preparation I and combinations, evening before test (Example 39). The following applies: individual A, 100 W for 25 min, before sleep, glibenclamide 2.5 mg, glibornuride 25 mg. It is filed as in vivo, human. The procedure: as §1, §2, §4
b) In a second study, antidiabetic sulphonyl urea derivatives, glucocorticoids, Preparation I and combinations thereof were administered before sleep, the evening before the tests. In the tests, individual A was subjected to a workload of 100 W (60 r.p.m.) for 25 minutes (tests A1-A9), and individual B was subjected to a workload of 175 W (60 r.p.m.) for 45 minutes (tests B10-B33).

The test system is the same in assay [4]. The assay is described as follows: Ergometer study a): insulin or sulphonylureas alone or with gelatin and/or Preparation I or II, 15 minutes before test (Example 39). In kind it is in vivo, human. Here is the method:
as §1, §2, §3, §4
a) In a first study, insulin or antidiabetic sulphonylurea derivatives were applied, alone or in combination with gelatin and/or Preparation I or II, 15 minutes before the tests. In the tests, individual A was subjected to a workload of 100 W (60 r.p.m.) for 15 minutes (tests A1-A8), and individual B was subjected to a workload of 175 W (60 r.p.m.) for 10 minutes (tests B9-B29).

Setting [5] is: individual B, 175 W for 10 min, 15 min before test, 5 I.U. insulin s.c., glibenclamide 2.5 mg alone or 100 μg with gelatin, chlorpropamide 10 mg, gelatin 5 mg, Prep. one dose unit.
Where [6] appears, read: individual A, 100 W for 15 min, 2.5 mg glibenclamide 15 min before test.

For the compound `O=C(CO)[C@@H](O)[C@H](O)[C@H](O)CO` [fructose], in assay [1], the “Stimulation of glycogen synthesis and of the anaerobic glucose breakdown in the muscle” value is reported as “ineffective”.

For `CCCNC(=O)NS(=O)(=O)c1ccc(Cl)cc1` [chlorpropamide], in assay [2], the Heat production stood at 2717 kJ, the Mean heart rate was 132.5 per min and the Oxygen consumption worked out at 130 L.

Regarding `Cc1ccc(S(=O)(=O)NC(=O)N[C@H]2[C@H]3CC[C@@](C)([C@H]2O)C3(C)C)cc1` [glibornuride], in assay [2], the Heat production was found to be 2706 kJ, the Mean heart rate was determined as 132.2 per min and the Oxygen consumption is 130 L. Moreover, in assay [3], the Heat production came out at 600 kJ, the Mean heart rate is reported as 100.0 per min and the Oxygen consumption was 29 L.

As to insulin, the “Effect on heat production and oxygen consumption induced by constant physical work loads” value in assay [4] (applied 15 minutes before the test) is on record as “increase”. For the same compound, in assay [4] (setting [5]), the Heat production is 675 kJ and 696 kJ (2×); the Mean heart rate was 142.0 per min. and 144.8 per min. (2×); the Oxygen consumption is 32 liter and 33 liter (2×).

As for `OC[C@H]1O[C@@](CO)(O[C@H]2O[C@H](CO)[C@@H](O)[C@H](O)[C@H]2O)[C@@H](O)[C@@H]1O` [sucrose], the “Stimulation of glycogen synthesis and of the anaerobic glucose breakdown in the muscle” value in assay [1] is on record as “ineffective”.

As for `COc1ccc(Cl)cc1C(=O)NCCc1ccc(S(=O)(=O)NC(=O)NC2CCCCC2)cc1` [glibenclamide], the Heat production is 2727 kJ in assay [2]; 622 kJ and 613 kJ and 531 kJ in assay [3]; 687 kJ and 700 kJ and 679 kJ in assay [4] (setting [6]); 724 kJ and 698 kJ in assay [4] (setting [5]). Besides, the Mean heart rate in assay [2] is 132.6 per min; in assay [3], 101.5 per min. and 100.9 per min. and 95.4 per min; in assay [4] (setting [6]), 136.4 per min. and 137.8 per min. and 135.4 per min; in assay [4] (setting [5]), 147.5 per min. and 145.1 per min. The Oxygen consumption is 131 L in assay [2]; 30 liter (2×) and 26 liter in assay [3]; 33 liter (2×) and 34 liter in assay [4] (setting [6]); 34 L in assay [4] (setting [5]).
